{
  "source": "paper PMC8752738",
  "about": "“A propolis-derived small molecule ameliorates metabolic syndrome in obese mice by targeting the CREB/CRTC2 transcriptional complex” (Nature Communications, 2022)",
  "key": {"[1]": {"biological_target": "T1, MYC-CREB-ZIP / FLAG-CRTC2 interaction (Homo sapiens, UniProt P16220)", "T1 construct": "expressed in transfected cells; host or cells: HEK293", "T1 sequence (P16220 269-327 limits assumed)": "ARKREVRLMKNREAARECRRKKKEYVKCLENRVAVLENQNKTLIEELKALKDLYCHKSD", "experiment": "Immunoprecipitation of FLAG-CRTC2-WT with MYC-CREB-ZIP fragment", "assay_type": "biochemical", "conditions": "for Relative FLAG/MYC in MYC-IP fraction: Fig 3c replicates, FSK +", "source_text": "Fig. 3 APC inhibits CRTC2 interacting with CREB-ZIP and reduces acetyltransferase activity of CBP by binding with CREB protein directly. a Isothermal titration calorimetry (ITC) of HIS-CREB protein solution titrated into APC solution. The bottom solid line represents a nonlinear least-squares fitted by a single-site binding model. One of two independent experiments is shown here. b IC50 of APC inhibitory activity detected by CREB–CRTC2 two-hybrid assay in HEK293T cells (n = 3 per treatment, data are represented as mean ± SEM). One of three independent experiments is shown here. c Immunoprecipitation analysis of FLAG-CRTC2-WT recovered by anti-MYC antibody from HEK293 cells co-transfected with plasmids for a Myc-Creb-Zip fragment and the FLAG-Crtc2-Wt, stimulated by FSK (10 nM) for 2-h before harvest. APC (1–10 μM) was included in immunoprecipitation mixtures as indicated. Top represents one of three independent experiments, and the relative gray density of FLAG normalized to MYC in MYC-IP- factions is shown as a bar graph (bottom, n = 3). Data are represented as mean ± SEM; P values were determined by one-way ANOVA followed Dunnett’s multiple comparisons test. d Immunoblotting analysis of the acetyltransferase activity of CBP. The protein levels of H3K27ac and total Histone H3 were determined using specific antibodies from HEK293 cell lysate overexpressing HA-Cbp plasmid. Pretreatment with trichostatin (TSA, 0.5 μM) for 1 h prior to incubation with APC (2, 10 μM) for another 2-h. The top represents one of three independent experiments, and the relative gray density of H3K27ac normalized to total Histone H3 in cell lysate is shown as a bar graph (bottom, n = 3). Data are represented as mean ± SEM; P values were determined by one-way ANOVA followed Dunnett’s multiple comparisons test. ns, P > 0.05; *P < 0.05; **P < 0.01. Sources data for this figure are provided as source data file."}, "[2]": {"tested_on": "gluconeogenic and lipogenic gene mRNA in primary hepatocytes", "experiment": "Quantitative PCR of gene expression in primary hepatocytes", "assay_type": "cell-based, mouse", "parameters": "key to Lxra mRNA levels: mRNA level normalized to ribosomal L32 mRNA (internal control); key to Crtc2 mRNA levels / Srebf-1c mRNA levels / Srebf-2 mRNA levels / mRNA levels of G6pc / mRNA levels of CREB / mRNA levels of CRTC2: relative mRNA level, normalized to ribosomal L32", "conditions": "for Lxra mRNA levels, Mean / Srebf-2 mRNA levels, Mean / Srebf-1c mRNA levels, Mean / Crtc2 mRNA levels, Mean / Crtc2 mRNA levels / Lxra mRNA levels / Srebf-1c mRNA levels / Srebf-2 mRNA levels: Figure 7f; for Lxra mRNA levels, Mean / Srebf-2 mRNA levels, Mean / Srebf-1c mRNA levels, Mean / Crtc2 mRNA levels, Mean: mean of N=3; for Crtc2 mRNA levels / Lxra mRNA levels / Srebf-1c mRNA levels / Srebf-2 mRNA levels / mRNA levels of G6pc / mRNA levels of Pck1: single replicates; for mRNA of G6pc, mean / mRNA of Pck1, mean / mRNA levels of G6pc / mRNA levels of Pck1: Figure 9d; for mRNA of G6pc, mean / mRNA of Pck1, mean: group mean, N 6; for mRNA levels of CREB / mRNA levels of CRTC2 / mRNA levels of CREB, group mean (Mean 2) / mRNA levels of CRTC2, group mean (Mean 2): Supp. Fig.10 d; for mRNA levels of CREB / mRNA levels of CRTC2: individual replicates; for mRNA levels of CREB, group mean (Mean 2) / mRNA levels of CRTC2, group mean (Mean 2): n=6", "experimental": "Total RNA from cells and tissues was extracted by Trizol (Invitrogen) and reverse-transcribed into cDNA using the prime script RT reagent kit with gDNA eraser (Takara). The mRNA levels were determined using the SYBR-green PCR kit (Takara) with ABIPRISM 7900HT Sequence detector (ABI) according to the manufacturer’s protocol. The quantitative qPCR primers used in this work are listed in Supplementary Table 1. Ribosomal L32 mRNA levels were used as an internal control."}, "[3]": {"tested_on": "PPARα, RXRα or LXRα", "experiment": "PPRE-LUC reporter in HEK293T", "assay_type": "cell-based", "conditions": "for relative PPRE-LUC: individual replicates, Supp. Fig.6 c; for relative PPRE-LUC, mean: N=3", "experimental": "1 c) Luciferase reporter activity of PPRE-LUC (PPAR response element driven luciferase reporter) in\n2 HEK293T cell transfected with expression plasmids for Ppara, Rxra or Lxra with 8-h incubation of\n3 APC (10 µM). One of three independent experiments presented here. Data are represented as\n4 mean ± SEM. (n=3 per treatment). *, p < 0.05; **, p < 0.01; p values were determined by two-way"}},
  "note": "Where “and” joins values, the source holds several entries; their conditions need not be identical. Equal entries are not always repeated.",
  "data": [
    {"smiles": "CC(C)=CCc1cc(C=CC(=O)O)cc(CC=C(C)C)c1O", "note": "[APC, 3,5-diprenyl-4-hydroxycinnamic acid]", "values": [
      {"measurement": "FLAG-CRTC2 binding with MYC-CREB-ZIP domain", "setting": "[1]; APC 1–10 μM", "value": "inhibited"},
      {"measurement": "Relative FLAG/MYC in MYC-IP fraction", "setting": "[1]; APC 1 uM", "value": "3.874 and 3.872 and 3.786"},
      {"measurement": "Relative FLAG/MYC in MYC-IP fraction", "setting": "[1]; APC 5 uM", "value": "3.592 and 3.454 and 3.26"},
      {"measurement": "Relative FLAG/MYC in MYC-IP fraction", "setting": "[1]; APC 10 uM", "value": "2.4146 and 2.393 and 2.225"},
      {"measurement": "Lxra mRNA levels, Mean", "setting": "[2]; LV-CRTC2(S171A), Ctrl mean 1.393", "value": 0.7111},
      {"measurement": "Srebf-2 mRNA levels, Mean", "setting": "[2]; LV-CRTC2(S171A), Ctrl mean 1.711", "value": 0.86},
      {"measurement": "Srebf-1c mRNA levels, Mean", "setting": "[2]; LV-CRTC2(S171A), Ctrl mean 1.819", "value": 1.166},
      {"measurement": "Crtc2 mRNA levels, Mean", "setting": "[2]; LV-CRTC2(S171A), Ctrl mean 153.3", "value": 159.3},
      {"measurement": "Crtc2 mRNA levels", "setting": "[2]; LV-Crtc2-S171A", "value": "189.700 and 115.000 and 173.200"},
      {"measurement": "Lxra mRNA levels", "setting": "[2]; LV-Crtc2-S171A", "value": "0.732 and 0.747 and 0.654"},
      {"measurement": "Srebf-1c mRNA levels", "setting": "[2]; LV-Crtc2-S171A", "value": "1.132 and 1.102 and 1.263"},
      {"measurement": "Srebf-2 mRNA levels", "setting": "[2]; LV-Crtc2-S171A", "value": "0.860 and 0.819 and 0.901"},
      {"measurement": "Crtc2 mRNA levels, Mean", "setting": "[2]; LV-GFP, Ctrl mean 0.9233", "value": 1.106},
      {"measurement": "Lxra mRNA levels, Mean", "setting": "[2]; LV-GFP, Ctrl mean 0.93", "value": 0.8542},
      {"measurement": "Srebf-2 mRNA levels, Mean", "setting": "[2]; LV-GFP, Ctrl mean 0.9967", "value": 1.087},
      {"measurement": "Srebf-1c mRNA levels, Mean", "setting": "[2]; LV-GFP, Ctrl mean 1.053", "value": 0.9578},
      {"measurement": "Crtc2 mRNA levels", "setting": "[2]; LV-Gfp", "value": "1.240 and 0.976 and 1.101"},
      {"measurement": "Lxra mRNA levels", "setting": "[2]; LV-Gfp", "value": "0.950 and 0.709 and 0.904"},
      {"measurement": "Srebf-1c mRNA levels", "setting": "[2]; LV-Gfp", "value": "0.940 and 1.083 and 0.850"},
      {"measurement": "Srebf-2 mRNA levels", "setting": "[2]; LV-Gfp", "value": "1.040 and 1.162 and 1.060"},
      {"measurement": "mRNA of G6pc, mean", "setting": "[2]; +Gluc", "value": 73.01},
      {"measurement": "mRNA of Pck1, mean", "setting": "[2]; +Gluc", "value": 64.35},
      {"measurement": "mRNA levels of G6pc", "setting": "[2]; +Gluc", "value": "67.250 and 68.919 and 73.819 and 74.050 and 79.623 and 74.414"},
      {"measurement": "mRNA levels of Pck1", "setting": "[2]; +Gluc", "value": "68.035 and 58.064 and 57.318 and 65.734 and 69.952 and 67.024"},
      {"measurement": "mRNA of G6pc, mean", "setting": "[2]; -Gluc", "value": 0.2875},
      {"measurement": "mRNA of Pck1, mean", "setting": "[2]; -Gluc", "value": 0.3152},
      {"measurement": "mRNA levels of G6pc", "setting": "[2]; -Gluc", "value": "0.207 and 0.251 and 0.273 and 0.385 and 0.234 and 0.375"},
      {"measurement": "mRNA levels of Pck1", "setting": "[2]; -Gluc", "value": "0.283 and 0.267 and 0.371 and 0.342 and 0.306 and 0.322"},
      {"measurement": "mRNA levels of CREB", "setting": "[2]; +Gluc", "value": "0.685 and 0.852 and 0.9121 and 0.8012 and 0.8061 and 0.6905"},
      {"measurement": "mRNA levels of CRTC2", "setting": "[2]; +Gluc", "value": "0.8083 and 0.8216 and 1.1926 and 0.9078 and 0.9957 and 1.2399"},
      {"measurement": "mRNA levels of CREB, group mean (Mean 2)", "setting": "[2]; +Gluc, Ctrl mean 0.8616", "value": 0.7912},
      {"measurement": "mRNA levels of CRTC2, group mean (Mean 2)", "setting": "[2]; +Gluc, Ctrl mean 0.8879", "value": 0.9943},
      {"measurement": "mRNA levels of CREB", "setting": "[2]; -Gluc", "value": "0.9172 and 0.8231 and 0.8735 and 0.9451 and 0.728 and 1.0773"},
      {"measurement": "mRNA levels of CRTC2", "setting": "[2]; -Gluc", "value": "1.0775 and 1.0279 and 1.0015 and 1.1906 and 1.0107 and 1.2086"},
      {"measurement": "mRNA levels of CREB, group mean (Mean 2)", "setting": "[2]; -Gluc, Ctrl mean 0.9538", "value": 0.894},
      {"measurement": "mRNA levels of CRTC2, group mean (Mean 2)", "setting": "[2]; -Gluc, Ctrl mean 1.009", "value": 1.086},
      {"measurement": "mRNA levels of Lxrα, Srebf1 and Srebf2 with overexpressed Crtc2-S171A", "setting": "[2]; primary hepatocytes, APC 10 μM, 8-h", "value": "effectively reduced"},
      {"measurement": "mRNA accumulation of G6pc, Pck1 and Pgc-1α induced by glucagon", "setting": "[2]; primary hepatocytes, APC 1, 5 or 50 μM", "value": "remarkably decreased"},
      {"measurement": "activity of PPRE-luc induced by PPARα, RXRα or LXRα", "setting": "[3]; HEK293T, APC 10 µM, 8-h", "value": "did not alter"},
      {"measurement": "relative PPRE-LUC, Mean Diff. APC - Ctrl", "setting": "[3]; overexpressed gene: LXRa", "value": 0.2098},
      {"measurement": "relative PPRE-LUC", "setting": "[3]; overexpressed gene: LXRa", "value": "3.9435 and 4.3354 and 5.6775"},
      {"measurement": "relative PPRE-LUC, mean", "setting": "[3]; overexpressed gene: LXRa", "value": 4.652},
      {"measurement": "relative PPRE-LUC, Mean Diff. APC - Ctrl", "setting": "[3]; overexpressed gene: PPARa", "value": -2.353},
      {"measurement": "relative PPRE-LUC", "setting": "[3]; overexpressed gene: PPARa", "value": "39.2490 and 43.4175 and 53.1308"},
      {"measurement": "relative PPRE-LUC, mean", "setting": "[3]; overexpressed gene: PPARa", "value": 45.27},
      {"measurement": "relative PPRE-LUC, Mean Diff. APC - Ctrl", "setting": "[3]; overexpressed gene: RXRa", "value": 3.509},
      {"measurement": "relative PPRE-LUC", "setting": "[3]; overexpressed gene: RXRa", "value": "53.5690 and 51.6829 and 53.7514"},
      {"measurement": "relative PPRE-LUC, mean", "setting": "[3]; overexpressed gene: RXRa", "value": 53},
      {"measurement": "relative PPRE-LUC, Mean Diff. APC - Ctrl", "setting": "[3]; overexpressed gene: pcDNA", "value": -0.0701},
      {"measurement": "relative PPRE-LUC", "setting": "[3]; overexpressed gene: pcDNA", "value": "0.7140 and 0.9259 and 1.1498"},
      {"measurement": "relative PPRE-LUC, mean", "setting": "[3]; overexpressed gene: pcDNA", "value": 0.9299}
    ]}
  ]
}
